Test results as given in patent publication US20230098403A1, “MAGNETIC RESONANCE IMAGING CONTRAST AGENT, PREPARATION METHOD AND USE THEREOF” (GUANGZHOU PINGLAN MEDICAL TECHNOLOGY CO., LTD., priority 2020, published 2023).

How the values were obtained:
[1] = Excretion kinetics test, Mn^2+ in urine and bile by ICP-MS; format: in vivo, SD rats; details: tail vein 0.1 mmol/kg; for Bile: Mn^2+ excretion amount / Bile: cumulative Mn^2+ excretion amount / Bile: cumulative Mn^2+ excretion rate / Urine: Mn^2+ excretion amount / Urine: cumulative Mn^2+ excretion amount / Urine: cumulative Mn^2+ excretion rate: SD rats, n = 7
Procedure: Clean grade Sprague Dawley (SD) rats, 5 males and 3 females, weighing 250±50 g, were purchased from the Animal Experimental Center of North Sichuan Medical College, fasted for 12-16 h before the experiment and anesthetized by intraperitoneal injection of 3% sodium pentobarbital (40 mg/kg).
The rat tail was soaked in hot water at about 40° C. for about 1 minute, and it was wiped and sterilized by a cotton ball dipped in alcohol followed by fixing and stretching the tip of the tail with left thumb and middle finger, and flatting with the index finger. The tail vein was located at both sides of the tail and was light cyan in color. Air in an indwelling needle was removed with normal saline, and the indwelling needle was inserted into the vein at an angle of 15° to the vein. When blood was returned, the indwelling needle was pushed forward after insertion. Then the indwelling needle was fixed on the tail of the rat, and normal saline was injected at a rate of about 2 mL/h.
After sterilization, a longitudinal incision was made in the middle of the abdomen of rats below the xiphoid, by incising the skin, subcutaneous tissue, linea alba, and peritoneum layer by layer into the abdomen. A forcep was used for opening the left and right lobes of the liver, below which the duodenum and omentum were exposed. The transverse part of the duodenum was stretched with the forcep in the middle, and the pale yellow biliary tract was covered by the omentum and extended from the subhepatic portion to the duodenum. The biliary tract was bluntly dissected out, picked out with a glass pick, and a venous indwelling needle was inserted near the duodenum, fixed with a hemostatic clip, and bile was collected as a pre-dose sample.
A longitudinal incision was made at 0.5 cm above the urethral orifice of rats, and the skin was incised and the muscles were bluntly separated. After the bladder was filled to a certain extent, the bladder was lifted by the left hand with a tweezer, and the venous indwelling needle was held by the right hand and was obliquely inserted into the bladder toward the top, along the opening of ureter on the dorsal lateral side of the bladder, and the needle was removed to collect urine as a pre-dose sample.
After collecting pre-dose bile and urine samples, the drug was rapidly administered in the tail vein at a dose of 0.1 mmol/kg.
The hourly biliary excretion amount and hourly urinary excretion amount were collected after drug administration; the samples were weighed and frozen at −20° C.
[…] of the sample (bile and urine) was diluted to 6 to 10 ml with 1% HNO3 to make the concentrations of Mn^2+ in the range of 1 to 1000 ppb. The concentrations of Mn^2+ in the samples solution were numbered and detected. The Mn^2+ concentrations in the sample solutions were calculated according to the response intensity and standard curve.
Origin 9.0 was used for calculating data and drawing. The excretion amount during the period was obtained by multiplying the dilution ratio, measurement concentration and urine (bile) volume. The excretion amount during each period was compared with the dosage of administration to obtain the percentage of cumulative drug excretion amount during the corresponding time period.

[2] = In vivo imaging in rats (3.0 T MRI); details: SD rats, 0.2 mmol/kg tail vein
Procedure: 1. Sixteen SD rats were divided into a KBR0826 contrast agent group (experimental group) and a gadoteric acid meglumine (Gd-DOTA) contrast agent group (control group), with 8 rats in each group, fasted for 12 hours (drank water freely).
2. 3% sodium pentobarbital (60 to 70 mg/kg) was weighed for intraperitoneal anesthesia.
3. The dosage of KBR0826 was 0.2 mmol/kg. SD rats were imaged in vivo with a 3.0 T MRI imager. Contrast agents were injected into the tail vein. The signal intensities (SI) of the heart, liver, brain parenchyma, muscle, and abdominal aorta in rats were measured before and after injection, and signal to noise ratio (SNR) was calculated and time-signal intensity curve was drawn to evaluate the imaging effect of the contrast agents.

[3] = Relaxivity measurement (T1 and T2 relaxation, MRI Contrast Agent Analyzer); format: physicochemical; details: 0.5 T, 32° C., pH=7.4
Procedure: The method for measuring the relaxivity comprises the following steps: preparing contrast agent solutions in a gradient concentration (0.054, 0.109, 0.224, 0.451, 0.906 mM, in Hepes buffer, pH=7.4), and measuring the contrast agent samples at different concentrations by Niumag PQ001 MRI Contrast Agent Analyzer (0.5±0.08T, main frequency of instrument: 21.3 MHz; at 32° C.) to respectively obtain their T1 and T2 relaxation time, and then performing a linear fitting between the relaxation rate, Ri (Ri=1/Ti, i=1, 2) and the contrast agent concentrations to obtain a slope, i.e., relaxivity (ri, i=1, 2). Relaxivity reflects the ability of magnetic resonance imaging contrast agent to alter the relaxation time of water proton and is an important parameter to evaluate the quality of contrast agent. Relaxivity (ri, i=1, 2) is defined as the alteration in the relaxation rate of water proton (1/Ti, i=1, 2) by unit concentration of MRI Contrast agent (mmol/L).

With `O=C([O-])CN(CP(=O)([O-])O)C1CCCCC1N(CC(=O)[O-])CP(=O)([O-])O.[Mn+2].[Na+].[Na+]` (centres unmarked) [KBR0826] the “Bile: Mn^2+ excretion amount” value ([1]; sampling period 0-1 h) was 0.0386 mg, the “Bile: cumulative Mn^2+ excretion amount” value ([1]; sampling period 0-1 h) was 0.0385 mg and the “Bile: cumulative Mn^2+ excretion rate” value ([1]; sampling period 0-1 h) was 2.81%. For the same compound, the “Urine: Mn^2+ excretion amount” value ([1]; sampling period 0-1 h) was 0.06995 mg, the “Urine: cumulative Mn^2+ excretion amount” value ([1]; sampling period 0-1 h) was 0.06995 mg and the “Urine: cumulative Mn^2+ excretion rate” value ([1]; sampling period 0-1 h) was 5.28%. For the same compound, the “Bile: Mn^2+ excretion amount” value ([1]; sampling period 1-2 h) was 0.0865 mg, the “Bile: cumulative Mn^2+ excretion amount” value ([1]; sampling period 1-2 h) was 0.1251 mg and the “Bile: cumulative Mn^2+ excretion rate” value ([1]; sampling period 1-2 h) was 9.31%. For the same compound, the “Urine: Mn^2+ excretion amount” value ([1]; sampling period 1-2 h) was 0.1582 mg, the “Urine: cumulative Mn^2+ excretion amount” value ([1]; sampling period 1-2 h) was 0.2281 mg and the “Urine: cumulative Mn^2+ excretion rate” value ([1]; sampling period 1-2 h) was 18.27%. For the same compound, the “Bile: Mn^2+ excretion amount” value ([1]; sampling period 2-3 h) was 0.0518 mg, the “Bile: cumulative Mn^2+ excretion amount” value ([1]; sampling period 2-3 h) was 0.1768 mg and the “Bile: cumulative Mn^2+ excretion rate” value ([1]; sampling period 2-3 h) was 13.17%. For the same compound, the “Urine: Mn^2+ excretion amount” value ([1]; sampling period 2-3 h) was 0.1094 mg, the “Urine: cumulative Mn^2+ excretion amount” value ([1]; sampling period 2-3 h) was 0.3375 mg and the “Urine: cumulative Mn^2+ excretion rate” value ([1]; sampling period 2-3 h) was 26.67%. The “Bile: Mn^2+ excretion amount” value ([1]; sampling period 3-4 h) was 0.0333 mg, the “Bile: cumulative Mn^2+ excretion amount” value ([1]; sampling period 3-4 h) was 0.2101 mg and the “Bile: cumulative Mn^2+ excretion rate” value ([1]; sampling period 3-4 h) was 15.69%. For the same compound, the “Urine: Mn^2+ excretion amount” value ([1]; sampling period 3-4 h) was 0.02084 mg, the “Urine: cumulative Mn^2+ excretion amount” value ([1]; sampling period 3-4 h) was 0.3399 mg and the “Urine: cumulative Mn^2+ excretion rate” value ([1]; sampling period 3-4 h) was 26.71%. For the same compound, the “Bile: Mn^2+ excretion amount” value ([1]; sampling period 4-5 h) was 0.043 mg, the “Bile: cumulative Mn^2+ excretion amount” value ([1]; sampling period 4-5 h) was 0.2627 mg and the “Bile: cumulative Mn^2+ excretion rate” value ([1]; sampling period 4-5 h) was 19.66%. For the same compound, the “Urine: Mn^2+ excretion amount” value ([1]; sampling period 4-5 h) was 0.01213 mg, the “Urine: cumulative Mn^2+ excretion amount” value ([1]; sampling period 4-5 h) was 0.3521 mg and the “Urine: cumulative Mn^2+ excretion rate” value ([1]; sampling period 4-5 h) was 27.59%. For the same compound, the “Bile: Mn^2+ excretion amount” value ([1]; sampling period 5-6 h) was 0.0318 mg, the “Bile: cumulative Mn^2+ excretion amount” value ([1]; sampling period 5-6 h) was 0.2945 mg and the “Bile: cumulative Mn^2+ excretion rate” value ([1]; sampling period 5-6 h) was 22.07%. The “Urine: Mn^2+ excretion amount” value ([1]; sampling period 5-6 h) was 0.00387 mg, the “Urine: cumulative Mn^2+ excretion amount” value ([1]; sampling period 5-6 h) was 0.3559 mg and the “Urine: cumulative Mn^2+ excretion rate” value ([1]; sampling period 5-6 h) was 27.88%. The “Bile: Mn^2+ excretion amount” value ([1]; sampling period 6-7 h) was 0.0265 mg, the “Bile: cumulative Mn^2+ excretion amount” value ([1]; sampling period 6-7 h) was 0.3209 mg and the “Bile: cumulative Mn^2+ excretion rate” value ([1]; sampling period 6-7 h) was 24.05%. The “Urine: Mn^2+ excretion amount” value ([1]; sampling period 6-7 h) was 0.00284 mg, the “Urine: cumulative Mn^2+ excretion amount” value ([1]; sampling period 6-7 h) was 0.3588 mg and the “Urine: cumulative Mn^2+ excretion rate” value ([1]; sampling period 6-7 h) was 28.09%. The “Bile: Mn^2+ excretion amount” value ([1]; sampling period 7-8 h) was 0.0219 mg, the “Bile: cumulative Mn^2+ excretion amount” value ([1]; sampling period 7-8 h) was 0.3429 mg and the “Bile: cumulative Mn^2+ excretion rate” value ([1]; sampling period 7-8 h) was 25.67%. The “Urine: Mn^2+ excretion amount” value ([1]; sampling period 7-8 h) was 0.0018 mg, the “Urine: cumulative Mn^2+ excretion amount” value ([1]; sampling period 7-8 h) was 0.3606 mg and the “Urine: cumulative Mn^2+ excretion rate” value ([1]; sampling period 7-8 h) was 28.22%. For the same compound, the “Bile: Mn^2+ excretion amount” value ([1]; sampling period 8-9 h) was 0.02 mg, the “Bile: cumulative Mn^2+ excretion amount” value ([1]; sampling period 8-9 h) was 0.3684 mg and the “Bile: cumulative Mn^2+ excretion rate” value ([1]; sampling period 8-9 h) was 27.03%. The “Urine: Mn^2+ excretion amount” value ([1]; sampling period 8-9 h) was 0.00083 mg, the “Urine: cumulative Mn^2+ excretion amount” value ([1]; sampling period 8-9 h) was 0.3614 mg and the “Urine: cumulative Mn^2+ excretion rate” value ([1]; sampling period 8-9 h) was 28.28%. The “Bile: Mn^2+ excretion amount” value ([1]; sampling period 9-10 h) was 0.0179 mg, the “Bile: cumulative Mn^2+ excretion amount” value ([1]; sampling period 9-10 h) was 0.3859 mg and the “Bile: cumulative Mn^2+ excretion rate” value ([1]; sampling period 9-10 h) was 29.97%. The “Urine: Mn^2+ excretion amount” value ([1]; sampling period 9-10 h) was 0.00061 mg, the “Urine: cumulative Mn^2+ excretion amount” value ([1]; sampling period 9-10 h) was 0.362 mg and the “Urine: cumulative Mn^2+ excretion rate” value ([1]; sampling period 9-10 h) was 28.33%. The excretion route ([1]; rats) was “mainly excreted through liver and kidney”, the “time course of excretion in urine and bile” value ([1]; rats) was “mainly in urine at the early stage and then in bile” and the “excreted in liver and kidney” value ([1]; rats, within 600 min) was “about 60%”. The “share of liver and kidney in excretion” value ([1]; rats, within 600 min) was “half and half”, the “excretion seen by imaging” value [2] was “could be excreted through the kidneys and intestines” and the liver enhancement [2] was “obvious and continuous”. The “passage through the blood-brain barrier” value [2] was “could not pass through the normal blood-brain barrier” and the “relaxivity r1” value [3] was 3.12 mmol⁻¹ s⁻¹.
